What was measured:
[1] = biological target: T1, α3β4 nAChR expressed in Xenopus oocytes (Rattus norvegicus, UniProt P04757+P12392); assay: cell-based; assay type: cell-based
T1 construct: expressed in transfected cells; host or cells: Xenopus oocytes injected with cRNA

[2] = buffer or solvent
[3] = biological target: human serum albumin (HSA) (Homo sapiens, UniProt P02768); conditions: pH 7.2
[4] = pH 3
physchem [5] = conditions: not applicable
physchem [6] = conditions: buffer or solvent

T1 sequence (P04757 26-499 limits assumed): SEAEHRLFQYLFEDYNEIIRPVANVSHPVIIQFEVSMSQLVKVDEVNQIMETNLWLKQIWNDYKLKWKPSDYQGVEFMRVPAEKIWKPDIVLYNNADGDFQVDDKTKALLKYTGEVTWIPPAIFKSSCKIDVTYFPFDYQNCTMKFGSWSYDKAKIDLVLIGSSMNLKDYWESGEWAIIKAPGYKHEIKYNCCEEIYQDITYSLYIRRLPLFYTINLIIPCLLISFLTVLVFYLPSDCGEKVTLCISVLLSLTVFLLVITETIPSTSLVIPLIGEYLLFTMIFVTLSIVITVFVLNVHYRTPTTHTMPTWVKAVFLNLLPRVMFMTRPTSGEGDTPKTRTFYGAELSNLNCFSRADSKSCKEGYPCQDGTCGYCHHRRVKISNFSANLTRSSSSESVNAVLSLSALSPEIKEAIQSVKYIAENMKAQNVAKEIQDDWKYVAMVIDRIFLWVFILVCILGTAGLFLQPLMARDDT
T1 sequence (P12392 21-495 limits assumed): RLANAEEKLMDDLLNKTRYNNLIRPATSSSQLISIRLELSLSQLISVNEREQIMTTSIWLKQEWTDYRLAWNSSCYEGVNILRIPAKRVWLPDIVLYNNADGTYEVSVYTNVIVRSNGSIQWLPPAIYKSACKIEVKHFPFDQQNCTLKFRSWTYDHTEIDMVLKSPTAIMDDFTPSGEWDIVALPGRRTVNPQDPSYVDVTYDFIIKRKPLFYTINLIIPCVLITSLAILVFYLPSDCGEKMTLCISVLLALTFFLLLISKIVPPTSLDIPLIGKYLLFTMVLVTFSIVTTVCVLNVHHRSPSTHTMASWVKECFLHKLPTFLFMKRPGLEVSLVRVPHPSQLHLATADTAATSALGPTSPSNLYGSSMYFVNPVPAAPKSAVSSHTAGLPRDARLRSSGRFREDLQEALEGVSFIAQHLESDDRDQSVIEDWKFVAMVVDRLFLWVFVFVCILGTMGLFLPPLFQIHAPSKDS
human serum albumin (HSA), sequence (P02768 25-609 limits assumed): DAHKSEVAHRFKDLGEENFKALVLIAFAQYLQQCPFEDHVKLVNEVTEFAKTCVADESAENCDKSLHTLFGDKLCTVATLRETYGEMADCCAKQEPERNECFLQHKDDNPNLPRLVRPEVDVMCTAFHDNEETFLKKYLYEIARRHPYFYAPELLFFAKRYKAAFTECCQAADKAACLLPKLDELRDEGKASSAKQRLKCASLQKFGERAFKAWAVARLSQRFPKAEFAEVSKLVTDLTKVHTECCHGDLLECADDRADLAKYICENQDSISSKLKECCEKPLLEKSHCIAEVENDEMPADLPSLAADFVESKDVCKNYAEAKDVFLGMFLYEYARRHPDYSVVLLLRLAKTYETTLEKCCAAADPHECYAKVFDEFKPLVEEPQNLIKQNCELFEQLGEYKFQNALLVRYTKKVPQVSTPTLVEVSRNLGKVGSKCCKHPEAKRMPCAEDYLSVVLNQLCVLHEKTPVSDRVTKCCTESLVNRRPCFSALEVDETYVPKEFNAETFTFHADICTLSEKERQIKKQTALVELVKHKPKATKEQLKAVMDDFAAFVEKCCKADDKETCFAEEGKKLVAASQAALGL

Compound	Hill slope [1]	IC50 [1] [nM]	Response at 100 nM [1] [%]	remaining at 8 h [2] [%]	Globular isomer remaining, % of the total [3] [%]	Degradation rate constant K obs (50 °C) [4]	Degradation rate constant K obs (60 °C) [4]	Degradation rate constant K obs (70 °C) [4]	Degradation rate constant K obs (80 °C) [4]	E a, activation energy [4] [kcal/mol]	t0.5, half-life period at 25 °C [4] [days]	t0.9, validity period at 25 °C [4] [days]	remaining at 168 h (physchem [5]) [%]	remaining at 1 min (physchem [6]) [%]	remaining at 16 h (physchem [6]) [%]
CC[C@H](C)[C@@H]1NC(=O)[C@@H]2CCCN2C(=O)[C@H](CO)NC(=O)[C@H](CC[S+](C)[O-])NC(=O)[C@H](C)NC(=O)[C@H](CO)NC(=O)[C@@H]2CSSC[C@H](NC(=O)CN)C(=O)N[C@@H](CSSC[C@@H](C(N)=O)NC1=O)C(=O)N[C@@H](CO)C(=O)N[C@@H](Cc1c[nH]cn1)C(=O)N1CCC[C@H]1C(=O)N[C@@H](C(C)C)C(=O)N2 (stereo partly shown) [Product I]	0.76 (0.65–0.86)	503	15												
CC[C@H](C)[C@@H]1NC(=O)[C@@H]2CCCN2C(=O)[C@H](CO)NC(=O)[C@H](CCSC)NC(=O)[C@H](C)NC(=O)[C@H](CO)NC(=O)[C@@H]2CSSC[C@H](NC(=O)CN)C(=O)N[C@@H](CSSC[C@@H](C(N)=O)NC1=O)C(=O)N[C@@H](CO)C(=O)N[C@@H](Cc1cnc[nH]1)C(=O)N1CCC[C@H]1C(=O)N[C@@H](C(C)C)C(=O)N2 [TxID, α‐Conotoxin TxID]	1.17 (0.87–1.46)			36	75	1.01 × 10^−3 1/Mh	2.42 × 10^−3 1/Mh	5.54 × 10^−3 1/Mh	2.02 × 10^−2 1/Mh	27.9842	707	107	95	71	63

— publication PMC6722883 (FEBS Open Bio, 2019)
